This assay is described as follows: Relative sweetness of hydrophobic sweetener compounds (factor used for the Sucrose Equivalent calculation). As to conditions: Sucrose Equivalent = weight percent in the chewing gum multiplied by relative sweetness. An excerpt:
It should be appreciated that due to the slow release of hydrophobic sweeteners from the chewing gum, it is believed that higher levels of the hydrophobic sweeteners as compared to typical water soluble sweeteners may be necessary to provide the desired level of sweetness or sweetness intensity. The amount can suitably vary depending on any number of factors, such as the desired level of sweetness and the relative sweetness intensity specific to the hydrophobic sweetener compound. As detailed below, the relative sweetness can vary depending on the type of hydrophobic sweetener compound. In an embodiment, chewing gum includes the hydrophobic sweetener compound in an amount ranging from about 50 to about 5000 Sucrose Equivalents. The Sucrose Equivalent factor is determined by multiplying the weight percent of the hydrophobic compound in the chewing gum by its relative sweetness. By way of example and not limitation, the following tables illustrate a variety of hydrophobic sweetener compounds representative of the hydrophobic sweetener compounds of Formulas I–XI, as previously discussed. The tables also indicate the relative sweetness of the hydrophobic sweetener compounds. As previously discussed, this factor can be utilized to calculate the Sucrose Equivalent calculation which relates to the amount of hydrophobic sweetener in the chewing gum.
On to `COc1ccc(C2COc3ccccc3C2)cc1O` (stereo not shown) [Compound 1], for which the “Relative Sweetness” value is recorded as 200.
As for `COc1ccc(C2Cc3ccccc3CO2)cc1O` (stereo not shown) [Compound 2], the “Relative Sweetness” value was 350.
Then `COc1ccc(C2CCc3ccccc3O2)cc1O` (stereo not shown) [Compound 3], with 350; and `COc1ccc(C2COc3ccccc3O2)cc1O` (stereo not shown) [Compound 4], with 450; and `COc1ccc(C2OCc3ccccc3O2)cc1O` (stereo not shown) [Compound 5], with 3000.
Then `COc1ccc(C2Oc3ccccc3CS2)cc1O` (stereo not shown) [Compound 6], with 500; and `COc1ccc(C2CSc3ccccc3O2)cc1O` (stereo not shown) [Compound 7], with 250; and `COc1ccc(C2OCc3ccccc3S2)cc1O` (stereo not shown) [Compound 8], with 9000.
Then `COc1ccc(C2COc3ccccc3S2)cc1O` (stereo not shown) [Compound 9], with 2000; and `COc1ccc(C2CCc3ccccc3S2)cc1O` (stereo not shown) [Compound 10], with 200; and `COc1ccc(C2SCc3ccccc3S2)cc1O` (stereo not shown) [Compound 11], with 1000.
For `COc1ccc(C2CSc3ccccc3S2)cc1O` (stereo not shown) [Compound 12], the “Relative Sweetness” value is reported as 450.
For `COc1ccc(C2Sc3ccccc3S2)cc1O` [Compound 13] the value was 200; for `COc1ccc(C2Oc3ccccc3S2)cc1O` (stereo not shown) [Compound 14], 300; for `COc1ccc(C2Oc3ccccc3O2)cc1O` [Compound 15], 150.
As to `COc1ccc(C2OCc3ccccc3S2)cc1S` (stereo not shown) [Compound 16], the “Relative Sweetness” value is listed as 50.
On to `Oc1ccc(C2OCc3ccccc3S2)cc1O` (stereo not shown) [Compound 17], for which the “Relative Sweetness” value is 200.
For `Oc1cccc(C2OCc3ccccc3S2)c1` (stereo not shown) [Compound 18] the value was 100; for `COc1ccc(C2CS(=O)(=O)c3ccccc3O2)cc1O` (stereo not shown) [Compound 19], 50; for `COc1ccc(C2CSc3cc(O)ccc3O2)cc1O` (stereo not shown) [Compound 20], 500.
For `COc1ccc(C(=O)c2ccccc2C(=O)O)cc1O` [Compound 21] the value was 250.
Then `O=C(O)c1ccccc1C(=O)c1ccc(O)c(O)c1` [Compound 22], with 100; and `COc1ccc([S+]([O-])c2ccccc2C(=O)O)cc1` (stereo not shown) [Compound 23], with 50; and `COc1ccc(CCC(=O)c2c(O)cc(O)cc2O)cc1O` [Compound 24], with 665.
Turning to `COc1ccc(CCC(=O)c2cccc(C(=O)O)c2)cc1O` [Compound 25], the “Relative Sweetness” value is reported as 80.
Regarding `COc1ccc(OCc2ccccc2C(=O)O)cc1O` [Compound 26], the “Relative Sweetness” value is 10.
For `COc1ccc(CCc2ccccc2)cc1O` [Compound 27] the value was 300.
With `O=C(O)c1ccccc1C(=O)c1ccc(O)cc1` [Compound 30], the “Relative Sweetness” value is listed as 200.
Then `COc1ccc(C(=O)/C=C/C(=O)O)cc1` [Compound 33], with 50; and `COc1ccc(OC(=O)c2ccccc2C(=O)O)cc1` [Compound 34], with 10; and `COc1ccc(C(=O)c2ccccc2C(=O)[O-])cc1.[Na+]` [Compound 36], with 150.

The values are drawn from US7025999B2, “Chewing gum having prolonged sensory benefits” (Wm. Wrigley Jr. Company, priority 2001, dated 2006).
